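Briefly, cells in 96-well plates were exposed to five compound concentrations for 48 h, and endpoints were estimated by linear interpolation. GI50 marks 50% less growth. TGI marks complete inhibition of growth.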
What was measured:
Assay in all cases: DTP human tumour cell line panel, 48 h
[1] = system: 786-0 renal
[2] = system: OVCAR-4 ovarian
[3] = system: NCI-H460 lung
[4] = system: SNB-19 CNS
[5] = system: MDA-MB-435
[6] = system: OVCAR-5 ovarian
[7] = system: IGROV1 ovarian
[8] = system: SR leukemia
[9] = system: SK-MEL-5 melanoma
[10] = system: COLO 205 colon
[11] = system: KM12 colon
[12] = system: LOX IMVI melanoma
[13] = system: BT-549 breast
[14] = system: UACC-62 melanoma
[15] = system: CAKI-1 renal
[16] = system: MOLT-4 leukemia
[17] = system: NCI/ADR-RES ovarian
[18] = system: M14 melanoma
[19] = system: SF-539 CNS
[20] = system: HCC-2998 colon
[21] = system: MALME-3M melanoma
[22] = system: EKVX NSCLC
[23] = system: HCT-15 colon
[24] = system: UO-31 renal
[25] = system: SF-295 CNS
[26] = system: OVCAR-8 ovarian
[27] = system: SF-268 CNS
[28] = system: HT29 colon
[29] = system: SK-MEL-2 melanoma
[30] = system: HS 578T breast
[31] = system: HOP-62 NSCLC
[32] = system: RXF 393 renal
[33] = system: SW-620 colon
[34] = system: HCT-116 colon
[35] = system: MCF7 breast
[36] = system: K-562 leukemia
[37] = system: SNB-75 CNS
[38] = system: UACC-257 melanoma
[39] = system: NCI-H23 lung
[40] = system: A549 NSCLC
[41] = system: SK-OV-3 ovarian
[42] = system: U251 CNS
[43] = system: NCI-H522 lung
[44] = system: ACHN renal
[45] = system: SK-MEL-28 melanoma
[46] = system: DU-145 prostate
[47] = system: TK-10 renal
[48] = system: A498 renal
[49] = system: HOP-92 NSCLC
[50] = system: MDA-MB-231 breast
[51] = system: SN12C renal
[52] = system: PC-3 prostate
[53] = system: NCI-H226 lung
[54] = system: T-47D breast
[55] = system: CCRF-CEM leukemia
[56] = system: HL-60(TB) leukemia

## CCN(CC)c1ccc2c(c1)Oc1nc(N)c(C#N)c(N)c1C2Sc1ccc(F)cc1 (centres undefined)
[1]
  GI50: 1560 nM
  TGI: 3020 nM
[2]
  GI50: 1750 nM
  TGI: 3180 nM
[3]
  GI50: 1280 nM
  TGI: 2750 nM
[4]
  GI50: 1410 nM
  TGI: 2740 nM
[5]
  GI50: 1330 nM
  TGI: 2730 nM
[6]
  GI50: 1380 nM
  TGI: 2780 nM
[7]
  GI50: 1050 nM
  TGI: 2380 nM
[8]
  GI50: 334 nM
  TGI: > 100000 nM
[9]
  GI50: 1760 nM
  TGI: 3170 nM
[10]
  GI50: 1220 nM
  TGI: 2670 nM
[11]
  GI50: 1210 nM
  TGI: 2490 nM
[12]
  GI50: 433 nM
  TGI: 1530 nM
[13]
  GI50: 1070 nM
  TGI: 2310 nM
[14]
  GI50: 1630 nM
  TGI: 3100 nM
[15]
  GI50: 1550 nM
  TGI: 2910 nM
[16]
  GI50: 315 nM
  TGI: > 100000 nM
[17]
  GI50: 2280 nM
  TGI: 5880 nM
[18]
  GI50: 1490 nM
  TGI: 3010 nM
[19]
  GI50: 1330 nM
  TGI: 2620 nM
[20]
  GI50: 1730 nM
  TGI: 3300 nM
[21]
  GI50: 1670 nM
  TGI: 3090 nM
[22]
  GI50: 661 nM
  TGI: 2060 nM
[23]
  GI50: 984 nM
  TGI: 2450 nM
[24]
  GI50: 1120 nM
  TGI: 2330 nM
[25]
  GI50: 1700 nM
  TGI: 3160 nM
[26]
  GI50: 1600 nM
  TGI: 3020 nM
[27]
  GI50: 1540 nM
  TGI: 2990 nM
[28]
  GI50: 1530 nM
  TGI: 3320 nM
[29]
  GI50: 1690 nM
  TGI: 3100 nM
[30]
  GI50: 1610 nM
  TGI: 4610 nM
[31]
  GI50: 1830 nM
  TGI: 3420 nM
[32]
  GI50: 1710 nM
  TGI: 3170 nM
[33]
  GI50: 1080 nM
  TGI: 2410 nM
[34]
  GI50: 1140 nM
  TGI: 2660 nM
[35]
  GI50: 1000 nM
  TGI: 2840 nM
[36]
  GI50: 308 nM
  TGI: > 100000 nM
[37]
  GI50: 1490 nM
  TGI: 2820 nM
[38]
  GI50: 1860 nM
  TGI: 3330 nM
[39]
  GI50: 1370 nM
  TGI: 2900 nM
[40]
  GI50: 1790 nM
  TGI: 3340 nM
[41]
  GI50: 2040 nM
  TGI: 3630 nM
[42]
  GI50: 1230 nM
  TGI: 2560 nM
[43]
  GI50: 1800 nM
  TGI: 3310 nM
[44]
  GI50: 1500 nM
  TGI: 2820 nM
[45]
  GI50: 1520 nM
  TGI: 2890 nM
[46]
  GI50: 1650 nM
  TGI: 3010 nM
[47]
  GI50: 2690 nM
  TGI: 4210 nM
[48]
  GI50: 1930 nM
  TGI: 3910 nM

## CCCCCCNC(=O)Oc1ccc(/C(=C(/C)c2ccc(Cl)cc2)c2ccc(OCCN3CCCC3)cc2)cc1
[1]
  GI50: 1780 nM
  TGI: 3290 nM
[2]
  GI50: 1840 nM
  TGI: 3750 nM
[3]
  GI50: 1760 nM
  TGI: 3200 nM
[4]
  GI50: 1850 nM
  TGI: 3590 nM
[49]
  GI50: 1160 nM
  TGI: 2420 nM
[50]
  GI50: 1730 nM
  TGI: 3220 nM
[5]
  GI50: 1790 nM
  TGI: 3250 nM
[6]
  GI50: 2730 nM
  TGI: 10100 nM
[51]
  GI50: 1730 nM
  TGI: 3200 nM
[7]
  GI50: 1740 nM
  TGI: 3280 nM
[9]
  GI50: 1720 nM
  TGI: 3150 nM
[10]
  GI50: 1860 nM
  TGI: 3360 nM
[11]
  GI50: 1980 nM
  TGI: 3740 nM
[52]
  GI50: 1520 nM
  TGI: 2950 nM
[12]
  GI50: 1590 nM
  TGI: 2950 nM
[13]
  GI50: 1700 nM
  TGI: 3200 nM
[14]
  GI50: 1750 nM
  TGI: 3220 nM
[15]
  GI50: 1480 nM
  TGI: 2820 nM
[16]
  GI50: 1730 nM
  TGI: 3970 nM
[17]
  GI50: 1680 nM
  TGI: 3300 nM
[18]
  GI50: 1720 nM
  TGI: 3180 nM
[19]
  GI50: 1710 nM
  TGI: 3120 nM
[20]
  GI50: 1650 nM
  TGI: 3050 nM
[21]
  GI50: 1710 nM
  TGI: 3240 nM
[22]
  GI50: 2180 nM
  TGI: 6120 nM
[23]
  GI50: 1500 nM
  TGI: 3000 nM
[24]
  GI50: 1240 nM
  TGI: 2520 nM
[25]
  GI50: 1730 nM
  TGI: 3170 nM
[26]
  GI50: 1720 nM
  TGI: 3360 nM
[27]
  GI50: 1770 nM
  TGI: 3720 nM
[28]
  GI50: 1620 nM
  TGI: 3190 nM
[29]
  GI50: 1890 nM
  TGI: 3510 nM
[53]
  GI50: 2020 nM
  TGI: 4470 nM
[30]
  GI50: 1660 nM
  TGI: 3590 nM
[31]
  GI50: 1550 nM
  TGI: 2950 nM
[32]
  GI50: 1700 nM
  TGI: 3260 nM
[33]
  GI50: 1670 nM
  TGI: 3130 nM
[34]
  GI50: 1510 nM
  TGI: 3100 nM
[54]
  GI50: 1310 nM
  TGI: 2880 nM
[35]
  GI50: 52.5 nM
  TGI: 1970 nM
[37]
  GI50: 1790 nM
  TGI: 8970 nM
[38]
  GI50: 1740 nM
  TGI: 3240 nM
[39]
  GI50: 1780 nM
  TGI: 3310 nM
[40]
  GI50: 1630 nM
  TGI: 3070 nM
[41]
  GI50: 1630 nM
  TGI: 3010 nM
[42]
  GI50: 1540 nM
  TGI: 2930 nM
[43]
  GI50: 1780 nM
  TGI: 3370 nM
[44]
  GI50: 1710 nM
  TGI: 3080 nM
[55]
  GI50: 1780 nM
  TGI: 4980 nM
[45]
  GI50: 1720 nM
  TGI: 3160 nM
[56]
  GI50: 1630 nM
  TGI: 3740 nM
[46]
  GI50: 1920 nM
  TGI: 3460 nM
[47]
  GI50: 1620 nM
  TGI: 3140 nM
[48]
  GI50: 3930 nM
  TGI: 17000 nM

From PubChem BioAssay (NCI)
